pEC50, pIC50: −log10 of the molar value. Like-named read-outs stand apart in the source and are kept apart here.
Columns and labels:
DNA-PK = molecular target: T1, DNA-PK (Homo sapiens, UniProt P78527); test: DNA-PK Assay for Biochemical Enzymatic Inhibition (ADP Glo Kinase assay)
T1 construct: purchased Invitrogen PR9107A
In short: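 Human DNA-PK (25 ng) preincubated 15 min with compounds (ten three-fold dilutions) in HEPES pH 7.5, MgCl2, KCl, calf thymus DNA buffer, then substrate 434.4 μM and ATP 64.4 μM (final) for 60 min at room temperature. ADP-Glo luminescence; percent inhibition fitted by four-parameter regression for IC50.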

[1] = molecular target: T2, DNA-PK phosphorylation at Serine 2056 (Homo sapiens, UniProt P78527); test: Cellular Assay for Inhibition of DNA-PK Phosphorylation at Serine 2056 (FaDu cells, neocarzinostatin, sandwich ELISA); assay type: cell-based
T2 construct: host or cells: FaDu
In short: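 Readout was pSer2056 and total DNA-PK, measured by sandwich ELISA on protein-normalized lysates. Prior to lysis, compound was applied to FaDu cells for 1 h (0.3% DMSO), followed by 2 h of 1 μg/mL neocarzinostatin. IC50 values were fitted from log concentration versus % inhibition normalized to DMSO and NCS controls.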

[2] = molecular target: T3, pDNA-PK ser2056 induction in HCT116 spheroids (Homo sapiens, UniProt P78527); test: Multicellular tumour spheroid + radiation, pDNA-PK inhibition, HCT116; assay type: cell-based; conditions: 20 Gy, 20% O2
T3 construct: endogenous in cells; host or cells: HCT116 multicellular tumour spheroids
In short: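 EC50 (μM) is concentration halving radiation-induced pDNA-PK ser2056, scored by fluorescent immunostaining of cryosections 2 h after 20 Gy. HCT116 tumour spheroids (~0.5 mm, stirred, 20% O2/5% CO2, 37 °C) exposed to serial dilutions from 10 or 5 μM to 3.5 nM starting 1 h before irradiation.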

[3] = Microsomal stability assay, human liver microsomes; assay type: in vitro ADME; conditions: for microsomal CLint at 0.1 uM: both sexes, human, liver microsomes
Method: Samples were then mixed and centrifuged. Supernatants were used for HPLC-MS/MS analysis. […] Peak areas corresponding to the test compound were recorded.

[4] = Microsomal stability assay, mouse liver microsomes; conditions: for microsomal CLint at 0.1 uM: male, CD-1, mouse, liver microsomes, pH 7.4, Microsomal Stability Mouse Clint
[5] = Hepatocyte stability assay, mouse hepatocytes; assay type: in vitro ADME; conditions: for hepatocyte CLint at 1 uM: male, CD-1, mouse, cryopreserved hepatocytes
Method: (§1) Cryopreserved mouse hepatocytes were obtained from a pool of 10 or more male CD-1 mice. Cryopreserved human hepatocytes were obtained from a pool of 10 or more donors of mixed gender. Final hepatocyte density was 0.7 million viable cells per mL and test compound concentration was 1 uM with a maximum of 0.01% DMSO. Cryopreserved hepatocytes were thawed, washed, and resuspended in Krebs-Heinslet buffer (pH 7.3). The reaction was initiated by adding the test compound into cell suspension and incubated for 0, […], 1, 1.5, and 2 h, respectively, at 37° C./5% CO2. The reaction was stopped by adding acetonitrile into the incubation mixture. Samples were then mixed, transferred completely to another 96-well plate, and centrifuged. Supernatants were used for HPLC-MS/MS analysis. […] Peak areas corresponding to the test compound were recorded.

[6] = Hepatocyte stability assay, human hepatocytes; assay type: in vitro ADME; conditions: both sexes, human, cryopreserved hepatocytes, pH 7.3; Example 11
Method: as §1

[7] = Example 7, spheroid, cell line HCT115 [sic], read-out: EC50 (pDNA-PK inhibition, immunohistochemical endpoint)
[8] = Example 9 Study 2, read-out: Spheroid Cell line: HCT116 Immunohistochemical endpoint pDNA-PK inhibition EC50
[9] = pH 7.4, 0.1 mg/mL microsomes, 0.1 uM compound
[10] = 0.1 mg/mL microsomes, 0.1 uM compound

O=C(N[C@H]1CC[C@@H](Oc2nc(N3CCOCC3)cc3ncccc23)CC1)c1cncs1 [Compound 137, N-((1s,4s)-4-((7-morpholino-1,6-naphthyridin-5-yl)oxy)cyclohexyl)thiazole-5-carboxamide]
pIC50 (DNA-PK; Table 1): > 9.30 | pIC50 ([1]; Table 1): 6.00 to 7.00 | pEC50 [2, 7]: 6.00 to 6.30 | pEC50 [2, 8]: 6.00 to 6.30 | Microsomal Stability (human) % rem. 60 min [3]: F (% remaining = 25-50%) | microsomal CLint at 0.1 uM [3, 9]: > 116 µL/min/mg | Microsomal Stability (mouse) % rem. 60 min [4]: G (% remaining = 50-75%) | microsomal CLint at 0.1 uM [4, 10]: < 116 µL/min/mg

CS(=O)(=O)Nc1cnc2cc(N3CCOCC3)nc(O[C@H]3CC[C@@H](Nc4ncc(C#N)cn4)CC3)c2c1 [LFA025, N-[5-[4-[(5-Cyanopyrimidin-2-yl)amino]cyclohexoxy]-7-morpholino-1,6-naphthyridin-3-yl]methanesulfonamide]
pIC50 (DNA-PK; Table 2): > 9.30 | pIC50 ([1]; Table 2): > 7.00 | Microsomal Stability (human) % rem. 60 min ([3]; Example 11): H (% remaining = 75-100%) | microsomal CLint at 0.1 uM ([3]; pH 7.4, Example 11): < 116 µL/min/mg | hepatocyte CLint at 1 uM ([5]; pH 7.3, Example 11): > 8.2 µL/min/1e6 cells | hepatocyte CLint at 1 uM [6]: < 8.2 µL/min/1e6 cells | Microsomal Stability (mouse) % rem. 60 min ([4]; Example 11): G (% remaining = 50-75%) | microsomal CLint at 0.1 uM ([4]; Example 11): < 116 µL/min/mg

COc1ccnc(C(=O)N[C@H]2CC[C@@H](Oc3nc(N4CCOCC4)cc4ncccc34)CC2)n1 [Compound 131, 4-methoxy-N-((1s,4s)-4-((7-morpholino-1,6-naphthyridin-5-yl)oxy)cyclohexyl)pyrimidine-2-carboxamide]
pIC50 (DNA-PK; Table 1): 9.00 to 9.30 | pIC50 ([1]; Table 1): > 7.00 | pEC50 [2, 7]: 5.00 to 6.00 | pEC50 [2, 8]: 5.00 to 6.00 | Microsomal Stability (human) % rem. 60 min [3]: E (% remaining = 0-25%) | microsomal CLint at 0.1 uM [3, 9]: > 116 µL/min/mg | Microsomal Stability (mouse) % rem. 60 min [4]: E (% remaining = 0-25%) | microsomal CLint at 0.1 uM [4, 10]: > 116 µL/min/mg

O=C(N[C@H]1CC[C@@H](Oc2nc(N3CCOCC3)cc3ncccc23)CC1)c1cccnn1 [Compound 120, N-((1s,4s)-4-((7-morpholino-1,6-naphthyridin-5-yl)oxy)cyclohexyl)pyridazine-3-carboxamide]
pIC50 (DNA-PK; Table 1): 9.00 to 9.30 | pIC50 ([1]; Table 1): 6.00 to 7.00 | pEC50 [2, 7]: 5.00 to 6.00 | pEC50 [2, 8]: 5.00 to 6.00 | Microsomal Stability (human) % rem. 60 min [3]: F (% remaining = 25-50%) | microsomal CLint at 0.1 uM [3, 9]: > 116 µL/min/mg | Microsomal Stability (mouse) % rem. 60 min [4]: H (% remaining = 75-100%) | microsomal CLint at 0.1 uM [4, 10]: < 116 µL/min/mg

CS(=O)(=O)Nc1cnc2cc(N3CCOCC3)nc(O[C@H]3CC[C@@H](Nc4ncc(C(F)(F)F)cn4)CC3)c2c1 [LFA022, N-[7-Morpholino-5-[4-[[5-(trifluoromethyl)pyrimidin-2-yl]amino]cyclohexoxy]-1,6-naphthyridin-3-yl]methanesulfonamide]
pIC50 (DNA-PK; Table 2): 9.00 to 9.30 | pIC50 ([1]; Table 2): > 7.00 | Microsomal Stability (human) % rem. 60 min ([3]; Example 11): H (% remaining = 75-100%) | microsomal CLint at 0.1 uM ([3]; pH 7.4, Example 11): < 116 µL/min/mg | hepatocyte CLint at 1 uM ([5]; pH 7.3, Example 11): > 8.2 µL/min/1e6 cells | Microsomal Stability (mouse) % rem. 60 min ([4]; Example 11): G (% remaining = 50-75%) | microsomal CLint at 0.1 uM ([4]; Example 11): < 116 µL/min/mg

CS(=O)(=O)Nc1cnc2cc(N3CCOCC3)nc(O[C@H]3CC[C@@H](n4ccnc4)CC3)c2c1 [LFA017, N-[5-(4-Imidazol-1-ylcyclohexoxy)-7-morpholino-1,6-naphthyridin-3-yl]methanesulfonamide]
pIC50 (DNA-PK; Table 2): > 9.30 | hepatocyte CLint at 1 uM ([5]; pH 7.3, Example 11): > 8.2 µL/min/1e6 cells | hepatocyte CLint at 1 uM [6]: < 8.2 µL/min/1e6 cells

CS(=O)(=O)Nc1cnc2cc(N3CCOCC3)nc(O[C@H]3CC[C@@H](NC(=O)c4ncccn4)CC3)c2c1 [LFA015, N-[4-[[3-(Methanesulfonamido)-7-morpholino-1,6-naphthyridin-5-yl]oxy]cyclohexyl]pyrimidine-2-carboxamide]
pIC50 (DNA-PK; Table 2): > 9.30 | pIC50 ([1]; Table 2): 5.00 to 6.00 | Microsomal Stability (human) % rem. 60 min ([3]; Example 11): H (% remaining = 75-100%) | microsomal CLint at 0.1 uM ([3]; pH 7.4, Example 11): < 116 µL/min/mg | Microsomal Stability (mouse) % rem. 60 min ([4]; Example 11): H (% remaining = 75-100%) | microsomal CLint at 0.1 uM ([4]; Example 11): < 116 µL/min/mg

CS(=O)(=O)Nc1cnc2cc(N3CCOCC3)nc(O[C@H]3CC[C@@H](NC(=O)c4ncccn4)CC3)c2c1 [Compound 177, N-((1s,4s)-4-((3-(methylsulfonamido)-7-morpholino-1,6-naphthyridin-5-yl)oxy)cyclohexyl)pyrimidine-2-carboxamide]
pIC50 (DNA-PK; Table 1): 9.00 to 9.30 | pIC50 ([1]; Table 1): 5.00 to 6.00 | pEC50 [2, 7]: 5.00 to 6.00 | pEC50 [2, 8]: 5.00 to 6.00 | Microsomal Stability (human) % rem. 60 min [3]: G (% remaining = 50-75%) | microsomal CLint at 0.1 uM [3, 9]: < 116 µL/min/mg | Microsomal Stability (mouse) % rem. 60 min [4]: G (% remaining = 50-75%) | microsomal CLint at 0.1 uM [4, 10]: < 116 µL/min/mg

CS(=O)(=O)Nc1cnc2cc(N3CCOCC3)nc(O[C@H]3CC[C@@H](Nc4ncccn4)CC3)c2c1 [LFA006, N-[7-Morpholino-5-[4-(pyrimidin-2-ylamino)cyclohexoxy]-1,6-naphthyridin-3-yl]methanesulfonamide]
pIC50 (DNA-PK; Table 2): > 9.30 | pIC50 ([1]; Table 2): > 7.00 | Microsomal Stability (human) % rem. 60 min ([3]; Example 11): G (% remaining = 50-75%) | microsomal CLint at 0.1 uM ([3]; pH 7.4, Example 11): < 116 µL/min/mg | hepatocyte CLint at 1 uM ([5]; pH 7.3, Example 11): > 8.2 µL/min/1e6 cells | Microsomal Stability (mouse) % rem. 60 min ([4]; Example 11): G (% remaining = 50-75%) | microsomal CLint at 0.1 uM ([4]; Example 11): < 116 µL/min/mg

O=C(N[C@H]1CC[C@@H](Oc2nc(N3CCOCC3)cc3ncc(O)cc23)CC1)c1ncccn1 [LFA115, N-[4-[(3-Hydroxy-7-morpholino-1,6-naphthyridin-5-yl)oxy]cyclohexyl]pyrimidine-2-carboxamide]
pIC50 (DNA-PK; Table 2): 9.00 to 9.30 | pIC50 ([1]; Table 2): 6.00 to 7.00 | Microsomal Stability (human) % rem. 60 min ([3]; Example 11): G (% remaining = 50-75%) | microsomal CLint at 0.1 uM ([3]; pH 7.4, Example 11): < 116 µL/min/mg | Microsomal Stability (mouse) % rem. 60 min ([4]; Example 11): G (% remaining = 50-75%) | microsomal CLint at 0.1 uM ([4]; Example 11): < 116 µL/min/mg

CN(c1cnc2cc(N3CCOCC3)nc(O[C@H]3CC[C@@H](Nc4ncccn4)CC3)c2c1)S(C)(=O)=O [Compound 197, N-methyl-N-(7-morpholino-5-(((1s,4s)-4-(pyrimidin-2-ylamino)cyclohexyl)oxy)-1,6-naphthyridin-3-yl)methanesulfonamide]
pIC50 (DNA-PK; Table 1): 8.00 to 9.00 | pIC50 ([1]; Table 1): 6.00 to 7.00 | Hepatocyte Stability (mouse) % rem. 120 min ([5]; 120 min): G (% remaining = 50-75%) | hepatocyte CLint at 1 uM ([5]; pH 7.3, 0.7 million cells per mL, 1 uM compound): > 8.2 µL/min/1e6 cells

Oc1cnc2cc(N3CCOCC3)nc(O[C@H]3CC[C@@H](Nc4ncccn4)CC3)c2c1 [LFA117, 7-Morpholino-5-[4-(pyrimidin-2-ylamino)cyclohexoxy]-1,6-naphthyridin-3-ol]
pIC50 (DNA-PK; Table 2): > 9.30 | pIC50 ([1]; Table 2): > 7.00 | Microsomal Stability (human) % rem. 60 min ([3]; Example 11): H (% remaining = 75-100%) | microsomal CLint at 0.1 uM ([3]; pH 7.4, Example 11): < 116 µL/min/mg | Microsomal Stability (mouse) % rem. 60 min ([4]; Example 11): F (% remaining = 25-50%) | microsomal CLint at 0.1 uM ([4]; Example 11): < 116 µL/min/mg
